{"source": "paper PMC7126098", "about": "(Bioorganic & Medicinal Chemistry, 2019)", "key": {"[1]": {"system": "eight human cancer cell lines", "assay": "Cytostatic activity against panel of human cell lines", "assay_type": "cell-based", "settings": "for IC50: Homo sapiens, read-out: cytostatic activity (IC50 range over cell lines)"}, "[2]": {"system": "herpes simplex virus-2 (G strain)", "assay": "Inhibition of virus-induced cytopathicity, HSV-2", "assay_type": "cell-based", "settings": "Human alphaherpesvirus 2, HEL, read-out: EC50 HSV-2"}, "[3]": {"assay": "Stability towards light and air", "assay_type": "physicochemical"}, "[4]": {"system": "herpes simplex virus-1 (KOS strain)", "assay": "Inhibition of virus-induced cytopathicity, HSV-1", "assay_type": "cell-based", "settings": "anti-HSV screening in HEL cells"}, "[5]": {"system": "pancreatic adenocarcinoma Capan-1 cell line", "assay": "Cytostatic activity against Capan-1", "assay_type": "cell-based, human"}, "HSV-1 TK": {"system": "HSV-1 TK", "settings": "relative to ACV; cited from earlier work"}, "[6]": {"system": "human cytomegalovirus (HCMV) (AD-169 strain and Davis strain)", "assay": "Inhibition of virus-induced cytopathogenicity, HCMV in HEL cells", "assay_type": "cell-based"}, "cell culture": {"system": "cell culture", "settings": "at concentrations up to 100 µg/mL; cited from earlier work"}}}
{"smiles": "O=c1c2ncn(CCC(CO)CO)c2nc2[nH]c(-c3ccc(C(F)(F)F)cc3)cn12", "note": "[9e, 3-(4-Hydroxy-3-(hydroxymethyl)butyl)-6-(4-(trifluoromethyl)phenyl)-3,5-dihydro-9H-imidazo[1,2-a]purin-9-one]", "values": [{"measurement": "IC50", "setting": "[1]", "value": "12.5 to 76.1", "unit": "µM"}, {"measurement": "EC50", "setting": "[2]", "value": "28 to 40.9", "unit": "µM"}]}
{"smiles": "O=c1c2ncn(CCCCO)c2nc2[nH]c(-c3cccs3)cn12", "note": "[10h, 3-(4-Hydroxybutyl)-6-(thiophen-2-yl)-3,5-dihydro-9H-imidazo[1,2-a]purin-9-one]", "values": [{"measurement": "stability towards light and air", "setting": "[3]", "value": "stable enough to be collected safely"}]}
{"smiles": "O=c1c2ncn(CCC(CO)CO)c2nc2[nH]c(-c3ccc(Oc4ccccc4)cc3)cn12", "note": "[9j, 3-(4-Hydroxy-3-(hydroxymethyl)butyl)-6-(4-phenoxyphenyl)-3,5-dihydro-9H-imidazo[1,2-a]purin-9-one]", "values": [{"measurement": "antiviral activity (in words)", "setting": "[4]", "value": "inactive"}, {"measurement": "IC50", "setting": "[1]", "value": "16.9 to 90.4", "unit": "µM"}]}
{"smiles": "O=c1c2ncn(CCC(CO)CO)c2nc2[nH]c(-c3ccc(F)cc3)cn12", "note": "[9b, 6-(4-Fluorophenyl)-3-(4-hydroxy-3-(hydroxymethyl)butyl)-3,5-dihydro-9H-imidazo[1,2-a]purin-9-one]", "values": [{"measurement": "EC50", "setting": "[2]", "value": "28 to 40.9", "unit": "µM"}]}
{"smiles": "O=c1c2ncn(CCC(CO)CO)c2nc2[nH]c(-c3ccc(Cl)cc3)cn12", "note": "[9c, 6-(4-Chlorophenyl)-3-(4-hydroxy-3-(hydroxymethyl)butyl)-3,5-dihydro-9H-imidazo[1,2-a]purin-9-one]", "values": [{"measurement": "antiviral activity (in words)", "setting": "[4]", "value": "inactive"}]}
{"smiles": "O=c1c2ncn(CCCCO)c2nc2[nH]c(-c3ccc(C(F)(F)F)cc3)cn12", "note": "[10e, 3-(4-Hydroxybutyl)-6-(4-(trifluoromethyl)phenyl)-3,5-dihydro-9H-imidazo[1,2-a]purin-9-one]", "values": [{"measurement": "cytostatic activity (in words)", "setting": "[1]; range of cancer cell lines", "value": "most effective"}]}
{"smiles": "O=c1c2ncn(CCC(CO)CO)c2nc2[nH]c(-c3ccccc3)cn12", "note": "[9a, 3-(4-Hydroxy-3-(hydroxymethyl)butyl)-6-phenyl-3,5-dihydro-9H-imidazo[1,2-a]purin-9-one]", "values": [{"measurement": "antiviral activity (in words)", "setting": "[4]", "value": "inactive"}]}
{"smiles": "Nc1nc2c(ncn2CCCCO)c(=O)[nH]1", "note": "[HBG, hydroxybutylguanine]", "values": [{"measurement": "inhibition of proliferation of Capan-1 (in words)", "setting": "[5]", "value": "slightly inhibited"}, {"measurement": "affinity for HSV-1 TK (in words)", "setting": "HSV-1 TK", "value": "higher affinity for HSV-1 TK than ACV"}, {"measurement": "activity against HCMV (in words)", "setting": "[6]", "value": "inactive"}]}
{"smiles": "Cc1ccc(-c2cn3c(=O)c4ncn(CCC(CO)CO)c4nc3[nH]2)cc1", "note": "[9d, 3-(4-Hydroxy-3-(hydroxymethyl)butyl)-6-(p-tolyl)-3,5-dihydro-9H-imidazo[1,2-a]purin-9-one]", "values": [{"measurement": "antiviral activity (in words)", "setting": "[4]", "value": "inactive"}]}
{"smiles": "O=c1c2ncn(CCC(CO)CO)c2nc2[nH]c(-c3ccc4c(c3)OCO4)cn12", "note": "[9i, 6-(Benzo[d][1,3]dioxol-5-yl)-3-(4-hydroxy-3-(hydroxymethyl)butyl)-3,5-dihydro-9H-imidazo[1,2-a]purin-9-one]", "values": [{"measurement": "EC50", "setting": "[2]", "value": "28 to 40.9", "unit": "µM"}]}
{"smiles": "Nc1nc2c(ncn2CCC(CO)CO)c(=O)[nH]1", "note": "[PCV, penciclovir]", "values": [{"measurement": "inhibition of proliferation of Capan-1 (in words)", "setting": "[5]", "value": "slightly inhibited"}, {"measurement": "toxicity in cell culture", "setting": "cell culture", "value": "did not exhibit any toxicity"}, {"measurement": "activity against HCMV (in words)", "setting": "[6]", "value": "not inhibitory"}]}
